In patent US10183938B2, “Geminal substituted quinuclidine amide compounds as agonists of α-7 nicotonic acetylcholine receptors” (AXOVANT SCIENCES GMBH, priority 2014, dated 2019):
Counter-ions that a name gives are not always drawn.

Legend:
[1] = target: human α7 nAChRs transiently expressed in Xenopus laevis oocytes (Homo sapiens (Human), UniProt P36544); assay: Oocyte electrophysiology screen (TEVC); format: cell-based; conditions: 0.01 mM test compound, peak current relative to 0.2 mM ACh
How it was run: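 Peak inward current from 0.01 mM compound, applied 30 s, is expressed relative to a 5 s 0.2 mM ACh reference response, in triplicate. Recordings used two-electrode voltage clamp at −80 mV in Xenopus oocytes with 90 s OR2 washes.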

[2] = target: human 5-HT3 serotonin receptors (Homo sapiens (Human), UniProt P46098); assay: [3H]BRL 43694 competition binding; conditions: CHO cell membranes, [3H]BRL 43694, Cheng Prusoff; read-out: h-5HT3 Ki
Chain of human 5-HT3 serotonin receptors (P46098 24-478): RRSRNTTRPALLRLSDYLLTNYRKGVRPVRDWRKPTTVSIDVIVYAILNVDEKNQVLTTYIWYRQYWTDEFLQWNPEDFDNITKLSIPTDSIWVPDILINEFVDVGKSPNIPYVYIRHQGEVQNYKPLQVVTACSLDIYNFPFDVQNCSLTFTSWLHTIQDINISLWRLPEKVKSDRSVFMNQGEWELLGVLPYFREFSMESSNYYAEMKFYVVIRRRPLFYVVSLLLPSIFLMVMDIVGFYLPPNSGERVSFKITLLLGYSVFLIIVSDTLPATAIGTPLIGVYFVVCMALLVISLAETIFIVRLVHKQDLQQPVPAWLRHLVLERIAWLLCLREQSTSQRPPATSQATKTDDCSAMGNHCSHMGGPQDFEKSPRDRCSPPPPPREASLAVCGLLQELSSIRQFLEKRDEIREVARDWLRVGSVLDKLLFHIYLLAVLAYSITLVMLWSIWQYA

Chain of human α7 nAChRs transiently expressed in Xenopus laevis oocytes (P36544 23-502 limits assumed): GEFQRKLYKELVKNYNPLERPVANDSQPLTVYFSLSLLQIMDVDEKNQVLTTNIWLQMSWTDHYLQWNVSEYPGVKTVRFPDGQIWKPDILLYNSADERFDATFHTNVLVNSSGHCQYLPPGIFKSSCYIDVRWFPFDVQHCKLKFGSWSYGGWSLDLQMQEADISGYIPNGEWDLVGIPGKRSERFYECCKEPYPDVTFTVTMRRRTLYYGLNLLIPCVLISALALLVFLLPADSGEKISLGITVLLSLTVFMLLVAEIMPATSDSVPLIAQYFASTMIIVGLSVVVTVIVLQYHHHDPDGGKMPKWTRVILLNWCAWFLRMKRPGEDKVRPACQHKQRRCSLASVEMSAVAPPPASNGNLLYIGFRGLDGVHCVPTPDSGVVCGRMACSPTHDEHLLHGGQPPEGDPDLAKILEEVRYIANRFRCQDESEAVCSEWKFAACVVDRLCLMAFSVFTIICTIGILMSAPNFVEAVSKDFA

SMILES | % ACh @ 10 μM Oocyte [1] | Ki [2]
CC1(C)[C@H](NC(=O)c2cc3c(cn2)OCCO3)C2CCN1CC2 [(R)-23, (R)—N-(2,2-dimethylquinuclidin-3-yl)-2,3-dihydro-[1,4]dioxino[2,3-c]pyridine-7-carboxamide hydrochloride] | 82 % ACh | > 10 µM
Cc1csc2ccc(C(=O)N[C@@H]3C4CCN(CC4)C3(C)C)cc12 [(R)-24, (R)—N-(2,2-dimethylquinuclidin-3-yl)-3-methylbenzo[b]thiophene-5-carboxamide hydrochloride] | 240 % ACh | 0.82 µM
CC1(C)[C@H](NC(=O)c2cc3cccnc3s2)C2CCN1CC2 [(R)-28, (R)—N-(2,2-dimethylquinuclidin-3-yl)thieno[2,3-b]pyridine-2-carboxamide hydrochloride] | 321 % ACh | > 10 µM
CC1(C)[C@H](NC(=O)c2ccc3sccc3c2)C2CCN1CC2 [(R)-30, (R)—N-(2,2-dimethylquinuclidin-3-yl)benzo[b]thiophene-5-carboxamide hydrochloride] | 396 % ACh | 2.3 µM
CC1(C)[C@H](NC(=O)c2cnc3occc3c2)C2CCN1CC2 [(R)-36, (R)—N-(2,2-dimethylquinuclidin-3-yl)furo[2,3-b]pyridine-5-carboxamide hydrochloride] | 1 % ACh | > 10 µM
CC1(C)[C@H](NC(=O)c2cc3ccsc3cn2)C2CCN1CC2 [(R)-43, (R)—N-(2,2-dimethylquinuclidin-3-yl)thieno[2,3-c]pyridine-5-carboxamide hydrochloride] | 951 % ACh | 1.5 µM
CC1(C)[C@H](NC(=O)c2cc3ccc(Br)cc3s2)C2CCN1CC2 [(R)-46, (R)-6-bromo-N-(2,2-dimethylquinuclidin-3-yl)benzo[b]thiophene-2-carboxamide hydrochloride] | 301 % ACh | > 10 µM
CC1(C)[C@H](NC(=O)c2cc3ccc(S(C)(=O)=O)cc3s2)C2CCN1CC2 [(R)-48, (R)—N-(2,2-dimethylquinuclidin-3-yl)-6-(methylsulfonyl)benzo[b]thiophene-2-carboxamide hydrochloride] | 0 % ACh | > 10 µM
COc1ccc2cc(C(=O)N[C@@H]3C4CCN(CC4)C3(C)C)sc2c1F [(R)-51, (R)—N-(2,2-dimethylquinuclidin-3-yl)-7-fluoro-6-methoxybenzo[b]thiophene-2-carboxamide hydrochloride] | 326 % ACh | > 10 µM
Cc1ccc2cc(C(=O)N[C@@H]3C4CCN(CC4)C3(C)C)sc2c1Cl [(R)-52, (R)-7-chloro-N-(2,2-dimethylquinuclidin-3-yl)-6-methylbenzo[b]thiophene-2-carboxamide hydrochloride] | 844 % ACh | 0.64 µM
Cc1ccc2cc(C(=O)N[C@@H]3C4CCN(CC4)C3(C)C)sc2c1F [(R)-53, (R)—N-(2,2-dimethylquinuclidin-3-yl)-7-fluoro-6-methylbenzo[b]thiophene-2-carboxamide hydrochloride] | 576 % ACh | 5.9 µM
O=C(N[C@@H]1C2CCN(CC2)C12CC2)c1ccc2occc2c1 [(R)-59, (R)—N-(1′-azaspiro[cyclopropane-1,2′-bicyclo[2.2.2]octan]-3′-yl)benzofuran-5-carboxamide hydrochloride] | 374 % ACh | 6.8 µM
O=C(N[C@@H]1C2CCN(CC2)C12CC2)c1cc2ccoc2cn1 [(R)-75, (R)—N-(1′-azaspiro[cyclopropane-1,2′-bicyclo[2.2.2]octan]-3′-yl)furo[2,3-c]pyridine-5-carboxamide hydrochloride] | 594 % ACh | 3.3 µM
Cc1csc2ccc(C(=O)N[C@@H]3C4CCN(CC4)C34CC4)cc12 [(R)-77, (R)-3-methyl-N-(1′-azaspiro[cyclopropane-1,2′-bicyclo[2.2.2]octan]-3′-yl)benzo[b]thiophene-5-carboxamide hydrochloride] | 547 % ACh | 0.66 µM
Cc1csc2cc(C(=O)N[C@@H]3C4CCN(CC4)C34CC4)ccc12 [(R)-78, (R)-3-methyl-N-(1′-azaspiro[cyclopropane-1,2′-bicyclo[2.2.2]octan]-3′-yl)benzo[b]thiophene-6-carboxamide hydrochloride] | 31 % ACh | 2.1 µM
O=C(N[C@@H]1C2CCN(CC2)C12CC2)c1ccc2cc[nH]c2c1 [(R)-79, (R)—N-(1′-azaspiro[cyclopropane-1,2′-bicyclo[2.2.2]octan]-3′-yl)-1H-indole-6-carboxamide] | 758 % ACh | 0.75 µM

SMILES | % ACh @ 10 μM Oocyte [1] | Ki [2]
O=C(N[C@@H]1C2CCN(CC2)C12CC2)c1ccc2sccc2c1 [(R)-83, (R)—N-(1′-azaspiro[cyclopropane-1,2′-bicyclo[2.2.2]octan]-3′-yl)benzo[b]thiophene-5-carboxamide hydrochloride] | 558 % ACh | 2.4 µM
O=C(N[C@@H]1C2CCN(CC2)C12CC2)c1ccc2ccoc2c1 [(R)-84, (R)—N-(1′-azaspiro[cyclopropane-1,2′-bicyclo[2.2.2]octan]-3′-yl)benzofuran-6-carboxamide hydrochloride] | 341 % ACh | 4.7 µM
Cc1nc2cc(C(=O)N[C@@H]3C4CCN(CC4)C34CC4)ccc2o1 [(R)-85, (R)-2-methyl-N-(1′-azaspiro[cyclopropane-1,2′-bicyclo[2.2.2]octan]-3′-yl)benzo[d]oxazole-5-carboxamide] | 188 % ACh | > 10 µM
Cc1nc2ccc(C(=O)N[C@@H]3C4CCN(CC4)C34CC4)cc2o1 [(R)-86, (R)-2-methyl-N-(1′-azaspiro[cyclopropane-1,2′-bicyclo[2.2.2]octan]-3′-yl)benzo[d]oxazole-6-carboxamide] | 67 % ACh | > 10 µM
Cc1cc2cc(C(=O)N[C@@H]3C4CCN(CC4)C34CC4)ccc2o1 [(R)-91, (R)-2-methyl-N-(1′-azaspiro[cyclopropane-1,2′-bicyclo[2.2.2]octan]-3′-yl)benzofuran-5-carboxamide hydrochloride] | 653 % ACh | > 10 µM
O=C(N[C@@H]1C2CCN(CC2)C12CC2)c1ccc2oc(Cl)cc2c1 [(R)-92, (R)-2-chloro-N-(1′-azaspiro[cyclopropane-1,2′-bicyclo[2.2.2]octan]-3′-yl)benzofuran-5-carboxamide hydrochloride] | 532 % ACh | > 10 µM
O=C(N[C@@H]1C2CCN(CC2)C12CC2)c1ccc2occ(Cl)c2c1 [(R)-94, (R)-3-chloro-N-(1′-azaspiro[cyclopropane-1,2′-bicyclo[2.2.2]octan]-3′-yl)benzofuran-5-carboxamide hydrochloride] | 812 % ACh | 1.6 µM
Cn1cnc2cc(C(=O)N[C@@H]3C4CCN(CC4)C34CC4)ccc21 [(R)-95, (R)-1-methyl-N-(1′-azaspiro[cyclopropane-1,2′-bicyclo[2.2.2]octan]-3′-yl)-1H-benzo[d]imidazole-5-carboxamide hydrochloride] | 0 % ACh | > 10 µM
O=C(N[C@@H]1C2CCN(CC2)C12CC2)c1cc2ccsc2cn1 [(R)-97, (R)—N-(1′-azaspiro[cyclopropane-1,2′-bicyclo[2.2.2]octan]-3′-yl)thieno[2,3-c]pyridine-5-carboxamide hydrochloride] | 816 % ACh | 0.43 µM
O=C(N[C@@H]1C2CCN(CC2)C12CC2)c1cc2ccc(N3CCOCC3)cc2s1 [(R)-99, (R)-6-morpholino-N-(1′-azaspiro[cyclopropane-1,2′-bicyclo[2.2.2]octan]-3′-yl)benzo[b]thiophene-2-carboxamide hydrochloride] | 1 % ACh | > 10 µM
O=C(N[C@@H]1C2CCN(CC2)C12CC2)c1cc2ccc(Br)cc2s1 [(R)-101, (R)-6-bromo-N-(1′-azaspiro[cyclopropane-1,2′-bicyclo[2.2.2]octan]-3′-yl)benzo[b]thiophene-2-carboxamide hydrochloride] | 412 % ACh | > 10 µM
O=C(N[C@@H]1C2CCN(CC2)C12CC2)c1cc2ccc(C3CCOCC3)cc2s1 [(R)-105, (R)—N-(1′-azaspiro[cyclopropane-1,2′-bicyclo[2.2.2]octan]-3′-yl)-6-(tetrahydro-2H-pyran-4-yl)benzo[b]thiophene-2-carboxamide hydrochloride] | 2 % ACh | > 10 µM
Cc1ccc2cc(C(=O)N[C@@H]3C4CCN(CC4)C34CC4)sc2c1F [(R)-106, (R)-7-fluoro-6-methyl-N-(1′-azaspiro[cyclopropane-1,2′-bicyclo[2.2.2]octan]-3′-yl)benzo[b]thiophene-2-carboxamide hydrochloride] | 572 % ACh | > 10 µM
O=C(N[C@@H]1C2CCN(CC2)C12CC2)c1ccc2c(c1)OCCO2 [(R)-107, (R)—N-(1′-azaspiro[cyclopropane-1,2′-bicyclo[2.2.2]octan]-3′-yl)-2,3-dihydrobenzo[b][1,4]dioxine-6-carboxamide hydrochloride] | 414 % ACh | > 10 µM
CC1(C)[C@H](NC(=O)c2cc3ccc(Cl)c(Cl)c3s2)C2CCN1CC2 [(R)-109, (R)-6,7-dichloro-N-(2,2-dimethylquinuclidin-3-yl)benzo[b]thiophene-2-carboxamide hydrochloride] | 432 % ACh | 4 µM
CC1(C)[C@H](NC(=O)c2cc3ccc(Cl)c(F)c3s2)C2CCN1CC2 [(R)-110, (R)-6-chloro-N-(2,2-dimethylquinuclidin-3-yl)-7-fluorobenzo[b]thiophene-2-carboxamide hydrochloride] | 444 % ACh | > 10 µM
